Data published in US11987586B1 (TAKEDA PHARMACEUTICAL COMPANY LIMITED, priority 2022, dated 2024).

Biological target: T1, human OX2 receptor (Homo sapiens, UniProt O43614)
T1 construct: expressed in transfected cells
T1 sequence (O43614 1-444): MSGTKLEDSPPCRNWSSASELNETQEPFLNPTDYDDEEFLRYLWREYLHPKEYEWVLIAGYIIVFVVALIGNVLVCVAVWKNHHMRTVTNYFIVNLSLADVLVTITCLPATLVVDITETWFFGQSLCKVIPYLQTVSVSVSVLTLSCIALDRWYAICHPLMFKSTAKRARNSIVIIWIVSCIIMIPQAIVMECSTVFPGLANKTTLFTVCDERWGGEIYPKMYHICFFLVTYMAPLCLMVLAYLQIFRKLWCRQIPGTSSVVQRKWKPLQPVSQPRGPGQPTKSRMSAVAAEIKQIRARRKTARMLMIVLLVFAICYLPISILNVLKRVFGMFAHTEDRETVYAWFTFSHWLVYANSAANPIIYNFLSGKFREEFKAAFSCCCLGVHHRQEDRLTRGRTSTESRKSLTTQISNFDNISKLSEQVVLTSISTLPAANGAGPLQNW
Assay: Measurement of orexin type 2 receptor agonist activity (calcium fluorescence, Fluo-4, FDSS)
Type: cell-based
Conditions: 3 uM test compound; CHO cells expressing human OX2 receptor; DMSO = 0%, 10 nM orexin A (human) = 100%
In short: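 Agonist activity (%) was normalised to the response to 10 nM final human orexin A (100%) and to the DMSO vehicle (0%). The response was measured as the Fluo-4 calcium signal, read kinetically over 1 min 40 s after compound addition to Fluo-4/probenecid-loaded stable CHO-K1 clones expressing human OX2 (aa 1-444).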

| OX2R agonist activity (3 uM, %) [%] | Structure (SMILES) |
| --- | --- |
| 95 | CCS(=O)(=O)N[C@@H]1Cn2c(cn(-c3noc4cc(COC)c(F)c(-c5c(F)cc(F)cc5F)c34)c2=O)C1(F)F [Example 239, N-{(6R)-7,7-difluoro-2-[5-fluoro-6-(methoxymethyl)-4-(2,4,6-trifluorophenyl)-1,2-benzoxazol-3-yl]-3-oxo-2,5,6,7-tetrahydro-3H-pyrrolo[1,2-c]imidazol-6-yl}ethanesulfonamide] |
| 104 | O=C1N(c2noc3cc(F)cc(-c4c(F)cccc4F)c23)CC[C@H]2N1C[C@@H](NS(=O)(=O)CF)C2(F)F [Example 279, N-{(4aR,6R)-2-[4-(2,6-difluorophenyl)-6-fluoro-1,2-benzoxazol-3-yl]-5,5-difluoro-1-oxooctahydropyrrolo[1,2-c]pyrimidin-6-yl}-1-fluoromethanesulfonamide] |
| 107 | Cc1cc2onc(N3CC[C@H]4N(C[C@@H](NS(C)(=O)=O)C4(F)F)C3=O)c2c(-c2c(F)cc(F)cc2F)n1 [Example 248, N-{(4aR,6R)-5,5-difluoro-2-[6-methyl-4-(2,4,6-trifluorophenyl)[1,2]oxazolo[4,5-c]pyridin-3-yl]-1-oxooctahydropyrrolo[1,2-c]pyrimidin-6-yl}methanesulfonamide] |
| 103 | Cc1cc2onc(-n3cc4n(c3=O)C[C@@H](NS(=O)(=O)C3CC3)C4(F)F)c2c(-c2c(F)cc(F)cc2F)n1 [Example 219, N-{(6R)-7,7-difluoro-2-[6-methyl-4-(2,4,6-trifluorophenyl)[1,2]oxazolo[4,5-c]pyridin-3-yl]-3-oxo-2,5,6,7-tetrahydro-3H-pyrrolo[1,2-c]imidazol-6-yl}cyclopropanesulfonamide] |
| 110 | CS(=O)(=O)N[C@@H]1CN2C(=O)N(c3noc4nccc(-c5c(F)cc(F)cc5F)c34)CC[C@@H]2C1(F)F [Example 237, N-{(4aR,6R)-5,5-difluoro-1-oxo-2-[4-(2,4,6-trifluorophenyl)[1,2]oxazolo[5,4-b]pyridin-3-yl]octahydropyrrolo[1,2-c]pyrimidin-6-yl}methanesulfonamide] |
| 101 | CCS(=O)(=O)N[C@H]1Cc2cn(-c3cnc4cccc(-c5c(F)cccc5F)n34)c(=O)n2C1 [Example 37, N-{(6S)-2-[5-(2,6-difluorophenyl)imidazo[1,2-a]pyridin-3-yl]-3-oxo-2,5,6,7-tetrahydro-3H-pyrrolo[1,2-c]imidazol-6-yl}ethanesulfonamide] |
| 113 | CS(=O)(=O)N[C@@H]1CN2C(=O)N(c3noc4cc(F)cc(-c5ncc(F)cc5F)c34)CC[C@@H]2C1(F)F [Example 295, N-{(4aR,6R)-2-[4-(3,5-difluoropyridin-2-yl)-6-fluoro-1,2-benzoxazol-3-yl]-5,5-difluoro-1-oxooctahydropyrrolo[1,2-c]pyrimidin-6-yl}methanesulfonamide] |
| 108 | CCS(=O)(=O)N[C@H]1C[C@H]2CN(c3nsc4cccc(-c5c(F)cccc5F)c34)C(=O)N2C1 [Example 55, N-{(6S,7aS)-2-[4-(2,6-difluorophenyl)-1,2-benzothiazol-3-yl]-3-oxohexahydro-1H-pyrrolo[1,2-c]imidazol-6-yl}ethanesulfonamide] |
| 103 | CCS(=O)(=O)N[C@@H]1CN2C(=O)N(c3noc4cc(C)nc(-c5c(F)cccc5F)c34)CC[C@@H]2C1(F)F [Example 275, N-{(4aR,6R)-2-[4-(2,6-difluorophenyl)-6-methyl[1,2]oxazolo[4,5-c]pyridin-3-yl]-5,5-difluoro-1-oxooctahydropyrrolo[1,2-c]pyrimidin-6-yl}ethanesulfonamide] |
| 109 | CS(=O)(=O)N[C@@H]1CN2C(=O)N(c3noc4cccc(-c5cccs5)c34)CC[C@@H]2C1(F)F [Example 278, N-{(4aR,6R)-5,5-difluoro-1-oxo-2-[4-(thiophen-2-yl)-1,2-benzoxazol-3-yl]octahydropyrrolo[1,2-c]pyrimidin-6-yl}methanesulfonamide] |
| 101 | O=C1N(c2noc3cc(F)cc(-c4c(F)cccc4F)c23)C[C@H]2N1C[C@@H](NS(=O)(=O)CF)C2(F)F [Example 287, N-{(6R,7aR)-2-[4-(2,6-difluorophenyl)-6-fluoro-1,2-benzoxazol-3-yl]-7,7-difluoro-3-oxohexahydro-1H-pyrrolo[1,2-c]imidazol-6-yl}-1-fluoromethanesulfonamide] |
| 101 | O=c1n(-c2noc3cc(F)cc(-c4c(F)cc(F)cc4F)c23)cc2n1C[C@@H](NS(=O)(=O)CF)C2(F)F [Example 288, N-{(6R)-7,7-difluoro-2-[6-fluoro-4-(2,4,6-trifluorophenyl)-1,2-benzoxazol-3-yl]-3-oxo-2,5,6,7-tetrahydro-3H-pyrrolo[1,2-c]imidazol-6-yl}-1-fluoromethanesulfonamide] |
| 112 | CCS(=O)(=O)N[C@@H]1Cn2c(cn(-c3noc4cc(C)nc(-c5c(F)cc(F)cc5F)c34)c2=O)C1(F)F [Example 198, N-{(6R)-7,7-difluoro-2-[6-methyl-4-(2,4,6-trifluorophenyl)[1,2]oxazolo[4,5-c]pyridin-3-yl]-3-oxo-2,5,6,7-tetrahydro-3H-pyrrolo[1,2-c]imidazol-6-yl}ethanesulfonamide] |
| 106 | CS(=O)(=O)N[C@@H]1CN2C(=O)N(c3noc4cccc(-c5ccc(F)cc5)c34)CC[C@@H]2C1(F)F [Example 277, N-{(4aR,6R)-5,5-difluoro-2-[4-(4-fluorophenyl)-1,2-benzoxazol-3-yl]-1-oxooctahydropyrrolo[1,2-c]pyrimidin-6-yl}methanesulfonamide] |
| 96 | CCS(=O)(=O)N[C@@H]1CN2C(=O)N(c3noc4cc(F)cc(-c5c(F)cccc5F)c34)C[C@@H]2C1(F)F [Example 69, N-{(6R,7aR)-2-[4-(2,6-difluorophenyl)-6-fluoro-1,2-benzoxazol-3-yl]-7,7-difluoro-3-oxohexahydro-1H-pyrrolo[1,2-c]imidazol-6-yl}ethanesulfonamide] |
| 96 | CCS(=O)(=O)N[C@@H]1Cn2c(cn(-c3noc4nc(C)cc(-c5c(F)cc(F)cc5F)c34)c2=O)C1(F)F [Example 190, N-{(6R)-7,7-difluoro-2-[6-methyl-4-(2,4,6-trifluorophenyl)[1,2]oxazolo[5,4-b]pyridin-3-yl]-3-oxo-2,5,6,7-tetrahydro-3H-pyrrolo[1,2-c]imidazol-6-yl}ethanesulfonamide] |
| 106 | CCS(=O)(=O)N[C@@H]1CN2C(=O)N(c3noc4cccc(-c5sccc5C)c34)CC[C@@H]2C1(F)F [Example 332, N-{(4aR,6R)-5,5-difluoro-2-[4-(3-methylthiophen-2-yl)-1,2-benzoxazol-3-yl]-1-oxooctahydropyrrolo[1,2-c]pyrimidin-6-yl}ethanesulfonamide] |
| 107 | CCS(=O)(=O)N[C@H]1C[C@H]2CCN(c3noc4cccc(-c5c(F)cc(F)cc5F)c34)C(=O)N2C1 [Example 205, N-{(4aR,6S)-1-oxo-2-[4-(2,4,6-trifluorophenyl)-1,2-benzoxazol-3-yl]octahydropyrrolo[1,2-c]pyrimidin-6-yl}ethanesulfonamide] |
| 105 | Cc1cc2onc(-n3cc4n(c3=O)C[C@@H](NS(=O)(=O)N(C)C)C4(F)F)c2c(-c2c(F)cccc2F)n1 [Example 286, N′-{(6R)-2-[4-(2,6-difluorophenyl)-6-methyl[1,2]oxazolo[4,5-c]pyridin-3-yl]-7,7-difluoro-3-oxo-2,5,6,7-tetrahydro-3H-pyrrolo[1,2-c]imidazol-6-yl}-N,N-dimethylsulfuric diamide] |
| 107 | O=C1N(c2noc3cc(F)cc(-c4c(F)cccc4F)c23)CC[C@H]2N1C[C@@H](NS(=O)(=O)C1CC1)C2(F)F [Example 271, N-{(4aR,6R)-2-[4-(2,6-difluorophenyl)-6-fluoro-1,2-benzoxazol-3-yl]-5,5-difluoro-1-oxooctahydropyrrolo[1,2-c]pyrimidin-6-yl}cyclopropanesulfonamide] |
| 106 | CS(=O)(=O)N[C@@H]1CN2C(=O)N(c3noc4cc(C(F)(F)F)cc(-c5c(F)cc(F)cc5F)c34)CC[C@@H]2C1(F)F [Example 225, N-{(4aR,6R)-5,5-difluoro-1-oxo-2-[6-(trifluoromethyl)-4-(2,4,6-trifluorophenyl)-1,2-benzoxazol-3-yl]octahydropyrrolo[1,2-c]pyrimidin-6-yl}methanesulfonamide] |
| 84 | CCS(=O)(=O)N[C@H]1C[C@H]2CN(c3noc4cccc(-c5sccc5C)c34)C(=O)N2C1 [Example 83, N-{(6S,7aS)-2-[4-(3-methylthiophen-2-yl)-1,2-benzoxazol-3-yl]-3-oxohexahydro-1H-pyrrolo[1,2-c]imidazol-6-yl}ethanesulfonamide] |
| 99 | CS(=O)(=O)N[C@@H]1Cn2c(cn(-c3noc4cc(C(F)F)cc(-c5c(F)cccc5F)c34)c2=O)C1(F)F [Example 136, N-{(6R)-2-[6-(difluoromethyl)-4-(2,6-difluorophenyl)-1,2-benzoxazol-3-yl]-7,7-difluoro-3-oxo-2,5,6,7-tetrahydro-3H-pyrrolo[1,2-c]imidazol-6-yl}methanesulfonamide] |
